Source: patent US6235761A, “Compound, composition and method for treating cancer” (priority 1999, dated 2001)

Assays:
CAKI-1 renal tumor = assay: sc CAKI-1 renal tumor in athymic mice (Table 2); type: in vivo, human tumor in athymic mice (Ncr-nu); details: for T-C / Tumor-Free Survival/Total: days 19-23
Protocol: This Example illustrates the efficacy of penclomedine and 4-demethylpenclomedine in the treatment of cancer. MX-1 mammary tumor xenograft was subcutaneously implanted into mice, and the mice were exposed to the compounds. The testing of the mice was performed following a published procedure. See, e.g., Plowman et al., supra; Geran et al., Cancer Chemother. Rep., Part 2, 1-55 (1972); Developmental Therapeutics Program, Division of Cancer Treatment, NCI, in In Vivo Models 1976-1982, NIH Publication No. 84-2635, Washington D.C., U.S. Govt. Printing Office (1984).
This Example further illustrates the efficacy of penclomedine and 4-demethylpenclomedine in the treatment of cancer. The compounds were tested in vivo on mice by the procedure set forth in Example 2. The results obtained are set forth in Table 2 and confirm that 4-demethyl-penclomedine is active against cancer, particularly mammary, colon, and renal cancer.
^a Athymic mice (Ncr-nu) were implanted either intracranially (ic) with
18 human MX-1 mammary tumor cells or subcutaneously (sc) with fragments of
human tumors (CAKI-, renal; HT29, colon; MX-1, mammary).
^b The difference in the median of time poststaging for tumors to
double in mass: T (treated mice), C (control mice)

[1] = Distribution of penclomedine and its metabolites in mouse tissues; type: in vivo, CD2F1 mice; details: for level in liver: mouse liver versus other tissues
Protocol: CD2F1 Mice were obtained from Harlan Sprague-Dawley (Frederick, Md.). During the course of this study, mice were housed in polyethylene shoe box cages without bedding and given access to food and water. Four mice were used per time point.
^14 C-Penclomedine (specific activity 17.6 and 18.9 mCi/mM, labeled at CCl3) was obtained from Research Triangle Institute (Research Triangle Park, N.C.) and stored at -20° C. The site of radiolabel has been conserved in all penclomedine metabolites identified to date. The composition of the radioactive material was determined to be 99% ^14 C-penclomedine, by HPLC coupled with radiochemical detection.
^14 C-penclomedine (1 mCi/ml in ethanol) was added to the clinical penclomedine emulsion to give an activity of […] (4% ethanol final concentration). The mice were administered the above penclomedine formulation at 40 mg/kg (120 mg/m^2, […]) either intravenously via tail vein or orally via gavage. At 1, 2, 4, and 22 hours after intravenous administration and 2,4, 6, and 22 hours after oral administration, animals were euthanized with carbon dioxide and blood tissues were collected. Blood tissues from each time point were pooled. Blood was centrifuged and plasma and red cells were separated; tissues were homogenized in 3 volumes of 100 mM ammonium formate buffer pH 6.5. Urinary output was estimated by washing the cages with water after removing food and feces and concentrating these cage washings.
A 1 ml aliquot of tissue homogenate or a […] was acidified with 200 ml of 0.7 M ammonium phosphate pH 2.7, then 3 ml of ethyl acetate was added. This mixture was vortexed, centrifuged and the organic layer was collected. Fifty microliters of DMSO were added, and the ethyl acetate was concentrated to approximately […] with a stream of dry nitrogen. Fifty microliters of acetonitrile were added to this residue, and the resulting solution was analyzed by HPLC. Human plasma was processed identically to mouse plasma with the exception that 500 ml of plasma was extracted. Concentrated cage washings were analyzed by HPLC without further processing.
Plasma and tissue protein binding data were measured on the residue of the above extractions. The aqueous phase was washed with 5 ml of ethanol, centrifuged, and the ethanol insoluble precipitate was washed again with 5 ml ethanol. After centrifugation the pellet was resuspended in 0.5 ml 6 M guanidinium chloride, added to 10 ml 3a70B scintillation cocktail (Research Products International Corp., Mount Prospect, Ill.), and counted for ^14 C.
HPLC Assays: The HPLC system consisted of a Hewlett-Packard Series II 1090 liquid chromatograph with diode array detector (Hewlett-Packard, Palo Alto, Calif.). The column used was an Alltech Adsorbosphere HS C18 5 m 250×4.6 mm column (Alltech Associates, Deerfield, Ill.). The system used a gradient elution consisting of 100% 10 mM ammonium phosphate buffer pH 2.7 progressing to 100% acetonitrile over 25 minutes at 1 ml/min. Detection was performed by means of ultraviolet absorbance at 240 nm as well as by means of radioactivity using a Radiomatic Flo-One/Beta A140 radioactive flow detector (Packard Instrument Co., Downers Grove, Ill.) equipped with a […] and Flo-Scint VI scintillation cocktail at a 2:1 ratio.
^14 C-Penclomedine derived radioactivity was determined in mouse urine samples collected at 1, 2, 4, and 22 hours following intravenous and oral administration of^14 C-penclomedine. […] There were considerable differences in metabolite distribution among the different tissues. […] Most compounds present in the 2 hour samples were detectable in the 22 hour samples at levels from 10% to 50% of those seen at 2 hours.

dogs = details: cited from earlier work
[2] = cited from earlier work
rats = details: dose related; during or immediately after infusion; cited from earlier work
[3] = system: patients with advanced solid tumors; details: cited from earlier work

## COc1nc(C(Cl)(Cl)Cl)c(Cl)c(O)c1Cl [4-Demethylpenclomedine, 3,5-dichloro-2-methoxy-4-hydroxy-6-(trichloromethyl)-pyridine]
CAKI-1 renal tumor; 90 mg/kg/dose IP
  T-C: 14.5 days
  Tumor-Free Survival/Total: 0/5
CAKI-1 renal tumor; Table 2
  activity against renal tumors (T-C): active against MX-1, colon, and renal tumors
[1]; mouse
  accumulation in fatty tissues compared with penclomedine: does not accumulate in fatty tissues as much as penclomedine
[1]; 14C-penclomedine dosed
  level in liver: liver contained the highest levels of demethylpenclomedine

## COc1nc(C(Cl)(Cl)Cl)c(Cl)c(OC)c1Cl [Penclomedine, 3,5-dichloro-2,4-dimethoxy-6-(trichloromethyl)pyridine]
CAKI-1 renal tumor; 135 mg/kg/dose IP
  T-C: 15.3 days
  Tumor-Free Survival/Total: 0/5
[1]; brain, 2 hours, i.v. 14C-penclomedine 40 mg/kg
  Tissue Concentration: 1.30 nmoles/gram wet tissue
[1]; brain, 2 hours, p.o. 14C-penclomedine 40 mg/kg
  Tissue Concentration: 2.16 nmoles/gram wet tissue
[1]; carcass, 2 hours, i.v. 14C-penclomedine 40 mg/kg
  Tissue Concentration: 14.8 nmoles/gram wet tissue
[1]; carcass, 2 hours, p.o. 14C-penclomedine 40 mg/kg
  Tissue Concentration: 55.2 nmoles/gram wet tissue
[1]; carcass, 22 hours, i.v. 14C-penclomedine 40 mg/kg
  Tissue Concentration: 5.15 nmoles/gram wet tissue
[1]; carcass, 22 hours, p.o. 14C-penclomedine 40 mg/kg
  Tissue Concentration: 2.16 nmoles/gram wet tissue
[1]; fat, 2 hours, i.v. 14C-penclomedine 40 mg/kg
  Tissue Concentration: 15.8 nmoles/gram wet tissue
[1]; fat, 2 hours, p.o. 14C-penclomedine 40 mg/kg
  Tissue Concentration: 18.55 nmoles/gram wet tissue
[1]; fat, 22 hours, i.v. 14C-penclomedine 40 mg/kg
  Tissue Concentration: 8.90 nmoles/gram wet tissue
[1]; kidney, 2 hours, i.v. 14C-penclomedine 40 mg/kg
  Tissue Concentration: 6.45 nmoles/gram wet tissue
[1]; kidney, 2 hours, p.o. 14C-penclomedine 40 mg/kg
  Tissue Concentration: 7.30 nmoles/gram wet tissue
[1]; kidney, 22 hours, i.v. 14C-penclomedine 40 mg/kg
  Tissue Concentration: 1.21 nmoles/gram wet tissue
[1]; kidney, 22 hours, p.o. 14C-penclomedine 40 mg/kg
  Tissue Concentration: 0.85 nmoles/gram wet tissue
[1]; liver, 2 hours, i.v. 14C-penclomedine 40 mg/kg
  Tissue Concentration: 0.69 nmoles/gram wet tissue
[1]; liver, 2 hours, p.o. 14C-penclomedine 40 mg/kg
  Tissue Concentration: 1.35 nmoles/gram wet tissue
[1]; liver, 22 hours, p.o. 14C-penclomedine 40 mg/kg
  Tissue Concentration: 0.38 nmoles/gram wet tissue
[1]; 14C-penclomedine dosed
  level in liver: the lowest levels of penclomedine
[1]; mouse, 14C-penclomedine dosed
  tissues with highest levels: Highest levels of penclomedine were detected in the fat and carcass
[1]; mouse, 2 hours
  detectability in 2 hour tissue samples: All 2 hour tissue samples contained detectable amounts of penclomedine
dogs
  plasma penclomedine levels associated with severe emesis and seizures: above 30 μM
[2]; during the time period of neurologic symptoms, rats, O'Reilly et al.
  detectability in the nervous system: penclomedine but not its metabolite is detectable in the nervous system
[2]; tumor-bearing rats
  predominant radioactive species in the brain: the predominant radioactive species in the brain was ^14 C-penclomedine
rats
  neurotoxicity in rats: muscle tremors, incoordination, convulsions and reduced activity
[3]; human, in vivo
  toxicities reported in preclinical and early clinical studies: Neurological and hematological toxicities
[3]; one hour infusion for 5 consecutive days, advanced solid tumors
  principal dose limiting toxicity: Neurotoxicity, consisting of dysmetria, ataxia, and vertigo
